“And” between values parts separate entries of the source, which are not always exact repeats. Equal entries are not always repeated.
How the values were obtained:
Format in all cases: biochemical
[1] = target: T1, Acidothermus cellulolyticus EI endoglucanase (Cel5A) catalytic domain variant Y82R, SEQ ID NO:2 (Acidothermus cellulolyticus, UniProt P54583, Y123R); assay: Michaelis-Menten kinetics of cellotriose hydrolysis (cellobiose release), EIY82R; settings: relative to native enzyme
T1 construct: the protein was genetically truncated near the beginning of the linker peptide; made in house; host or cells: E. coli XL1-blue
T1 sequence (P54583 42-399 Y123R): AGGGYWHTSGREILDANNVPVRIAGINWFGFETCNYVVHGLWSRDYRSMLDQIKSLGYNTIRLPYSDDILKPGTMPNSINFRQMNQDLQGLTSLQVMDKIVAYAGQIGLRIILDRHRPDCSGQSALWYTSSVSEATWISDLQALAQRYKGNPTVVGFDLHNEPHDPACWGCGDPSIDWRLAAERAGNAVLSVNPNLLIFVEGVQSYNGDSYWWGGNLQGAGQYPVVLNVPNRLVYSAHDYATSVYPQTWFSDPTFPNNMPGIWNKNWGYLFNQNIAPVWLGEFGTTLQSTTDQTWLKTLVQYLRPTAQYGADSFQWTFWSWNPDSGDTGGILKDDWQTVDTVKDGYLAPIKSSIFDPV
Method: (§1) Each assay mixture was pre-incubated at 50 degrees C. for 10 min. prior to the addition of 0.00272 micromolar (0. 1092 microgram/mL) enzyme, which was also made up in 5 mM acetate buffer with 10 microgram/mL BSA. The final assay volume was 0.1 mL.
(§2) At set-time intervals, an aliquot of the reaction mixture was pulled and immediately analyzed for the release of cellobiose using a Dionex DX300 chromatography system and a Dionex PAD2 pulsed amperometric detector having a gold working electrode. The response of this detector was optimized for the detection of carbohydrates using a waveform defined by the following time and potential settings: t1=420 msec.; EI=+0.05 V; t2=180 msec.; E2=+0.75 V; t3=360 msec.; and E3=−0.15 V. Separation of the reaction products, from the substrate, was achieved on a Dionex CarboPac PA-1 analytical (4×250 mm) column equipped with CarboPac PA-1 ([…], 500 mM sodium hydroxide eluent, and a flow rate of 1.5 mL/min. The amount of cellobiose present for each time-point-sample was quantified by comparing the area of the cellobiose peak against a linear calibration curve. The kinetic constants were determined with a double-reciprocal-plot, where the reciprocal of the rate of cellobiose produced was plotted as a function of the inverse of the substrate concentration.
(§3) Michaelis-Menten kinetics of the mutant EI enzymes and the native enzyme were determined.

[2] = target: T2, Acidothermus cellulolyticus EI endoglucanase (Cel5A) catalytic domain variant W42R, SEQ ID NO:1 (Acidothermus cellulolyticus, UniProt P54583, W83R); assay: Michaelis-Menten kinetics of cellotriose hydrolysis (cellobiose release), EIW42R; settings: relative to native enzyme
T2 construct: the protein was genetically truncated near the beginning of the linker peptide; made in house; host or cells: E. coli XL1-blue
T2 sequence (P54583 42-399 W83R): as the sequence (P54583 42-399 Y123R) above, with W42R, R82Y counted along it
Method: as §1, §2, §3

[3] = target: T3, Acidothermus cellulolyticus EI endoglucanase (Cel5A) catalytic domain, wild type (native), SEQ ID NO:3 of U.S. Pat. No. 5,536,655 (Acidothermus cellulolyticus, UniProt P54583); assay: Inhibition by cellobiose of hydrolysis of 4-methylumbelliferyl-β-D-cellobioside (MUC), wild type; settings: Ki for inhibition by cellobiose, substrate MUC 4 and 20 μM, 30 min, cellobiose 0 to 5 mM, Dixon plots
T3 construct: the mutant and wild type Cel5A catalytic domains were purified using the purification methods described above; made in house; host or cells: E. coli XL1-blue
T3 sequence (P54583 42-400): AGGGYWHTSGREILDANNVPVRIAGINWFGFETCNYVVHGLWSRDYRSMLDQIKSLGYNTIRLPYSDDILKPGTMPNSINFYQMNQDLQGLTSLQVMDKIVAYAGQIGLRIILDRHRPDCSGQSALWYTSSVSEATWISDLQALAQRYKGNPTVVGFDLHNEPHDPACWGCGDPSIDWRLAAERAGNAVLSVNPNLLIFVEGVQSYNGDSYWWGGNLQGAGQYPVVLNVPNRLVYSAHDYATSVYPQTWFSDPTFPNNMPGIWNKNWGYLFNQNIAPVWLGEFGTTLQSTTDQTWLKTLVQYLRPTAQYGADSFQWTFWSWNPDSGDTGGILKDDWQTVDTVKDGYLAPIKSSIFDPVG
Method: (§4) The enzymes (0.682 ng) were incubated for 30 min with the substrate at each of two concentrations (4 and 20 μM), in the presence of D-cellobiose (Sigma, St. Louis) )at concentrations ranging from 0 to 5 mM for the wild type catalytic domain, and from 0 to 50 mM for the Y245G mutant. At the end of the incubation period, the reaction in each 1-mL assay mixture was terminated by addition of 2 mL of 0.5 M sodium carbonate, pH 10.0. The extent of hydrolysis was then determined from the fluorescence of the ionized product, 4-methylumbelliferone, as measured in a SPEX FLUOROLOG spectrofluorometer with excitation wavelength at 380 nm and emission wavelength at 455 nm. These studies established that under these conditions, […]. Inhibition constants were then determined by means of Dixon plots of reciprocal velocity versus inhibitor concentration (Segel, 1975).
(§5) The mutant Cel5A enzyme, Y245G, was generated by PCR mutagenesis, and the mutant and wild type Cel5A catalytic domains were purified using the purification methods described above. […] For this reason, the molar extinction coefficients of the recombinant enzymes were calculated by considering the specific change in amino acid composition.

[4] = target: T4, Acidothermus cellulolyticus EI endoglucanase (Cel5A) catalytic domain variant Y245G, SEQ ID NO:3 (Acidothermus cellulolyticus, UniProt P54583, Y286G); assay: Inhibition by cellobiose of hydrolysis of 4-methylumbelliferyl-β-D-cellobioside (MUC), Y245G mutant
T4 construct: the mutant and wild type Cel5A catalytic domains were purified using the purification methods described above; made in house; host or cells: E. coli XL1-blue
T4 sequence (P54583 42-399 Y286G): as the sequence (P54583 42-399 Y123R) above, with R82Y, Y245G counted along it
Method: as §4, §5

SMILES | Vmax, % higher than that of the native enzyme [1] | Vmax, % higher than that of the native enzyme [2] | Ki [3] | Ki ([4]; Ki for inhibition by cellobiose, substrate MUC 4 and 20 μM, 30 min, cellobiose 0 to 50 mM, Dixon plots) | decrease in apparent binding energy of cellobiose versus native enzyme ([4]; from increase in Ki, Y245G relative to wild type)
OC[C@H]1O[C@@H](O[C@H]2[C@H](O)[C@@H](O)[C@H](O[C@H]3[C@H](O)[C@@H](O)C(O)O[C@@H]3CO)O[C@@H]2CO)[C@H](O)[C@@H](O)[C@@H]1O (some centres unmarked) [cellotriose] | ~75% | about 15% |  |  | 
OC[C@H]1O[C@@H](O[C@H]2[C@H](O)[C@@H](O)C(O)O[C@@H]2CO)[C@H](O)[C@@H](O)[C@@H]1O (stereo partly drawn) [cellobiose, D-cellobiose] |  |  | 1.88 mM and 2 mM | 29.7 mM and 30 mM | 1.7 kcal/mol and ~1.5 kcal/mol
